Data reported in patent US20230183193A1, “4-DIFLUOROMETHYL BENZOYL AMIDES WITH HERBICIDAL ACTION” (BAYER CROPSCIENCE AKTIENGESELLSCHAFT, priority 2017, published 2023).

Key:
Type in all cases: in vivo
Abutilon theophrasti [1] = assay: Pre-emergence herbicidal action, ABUTH; details: dosage 320 g/ha, scored visually after 3 weeks vs untreated controls
Description: (§1) 1. Pre-Emergence Herbicidal Action Against Harmful Plants Seeds of monocotyledonous and dicotyledonous weed plants and crop plants are laid out in sandy loam soil in wood-fiber pots and covered with soil. The compounds of the invention, formulated in the form of wettable powders (WP) or as emulsion concentrates (EC), are then applied to the surface of the covering soil in the form of an aqueous suspension or emulsion at a water application rate equating to […], with addition of 0.2% wetting agent. After the treatment, the pots are placed in a greenhouse and kept under good growth conditions for the trial plants. The damage to the test plants is scored visually after a test period of 3 weeks by comparison with untreated controls (herbicidal activity in percent (%): 100% activity=the plants have died, 0% activity=like control plants).
(§2) For comparison, the herbicidal activity of numerous compounds according to the invention was tested with the structurally closest compounds known from the documents WO 2011/035874, WO 2012/028579 and WO 2012/126932, by the pre- and post-emergence method.

Alopecurus myosuroides [2] = assay: Pre-emergence herbicidal action, ALOMY; details: dosage 320 g/ha, scored visually after 3 weeks vs untreated controls
Description: as §1, §2

Amaranthus retroflexus [3] = assay: Pre-emergence herbicidal action, AMARE; details: dosage 320 g/ha, scored visually after 3 weeks vs untreated controls
Description: as §1, §2

Avena fatua [4] = assay: Pre-emergence herbicidal action, AVEFA; details: dosage 320 g/ha, scored visually after 3 weeks vs untreated controls
Description: as §1, §2

Cyperus serotinus = assay: Pre-emergence herbicidal action, CYPES; details: dosage 320 g/ha, scored visually after 3 weeks vs untreated controls
Description: as §1, §2

Matricaria inodora = assay: Pre-emergence herbicidal action, MATIN; details: dosage 320 g/ha, scored visually after 3 weeks vs untreated controls
Description: as §1, §2

Setaria viridis [5] = assay: Pre-emergence herbicidal action, SETVI; details: dosage 320 g/ha, scored visually after 3 weeks vs untreated controls
Description: as §1, §2

Stellaria media [6] = assay: Pre-emergence herbicidal action, STEME; details: dosage 320 g/ha, scored visually after 3 weeks vs untreated controls
Description: as §1, §2

Viola tricolor [7] = assay: Pre-emergence herbicidal action, VIOTR; details: dosage 320 g/ha, scored visually after 3 weeks vs untreated controls
Description: as §1, §2

Abutilon theophrasti [8] = assay: Post-emergence herbicidal action, ABUTH; details: 80 g/ha, Table D
Description: (§3) Seeds of monocotyledonous and dicotyledonous weed and crop plants are laid out in sandy loam soil in wood-fiber pots, covered with soil and cultivated in a greenhouse under good growth conditions. 2 to 3 weeks after sowing, the test plants are treated at the one-leaf stage. The compounds of the invention, formulated in the form of wettable powders (WP) or as emulsion concentrates (EC), are then sprayed onto the green parts of the plants in the form of an aqueous suspension or emulsion at a water application rate equating to […], with addition of 0.2% wetting agent. After the test plants have been left to stand in the greenhouse under optimal growth conditions for about 3 weeks, the action of the preparations is assessed visually in comparison to untreated controls (herbicidal action in percent (%): 100% activity=the plants have died, 0% activity=like control plants). […] At the same time, inventive compounds leave Gramineae crops such as barley, wheat, rye, millet/sorghum, corn or rice virtually undamaged when applied post-emergence, even at high active compound dosages. In addition, some substances are also harmless to dicotyledonous crops such as soya, cotton, oilseed rape, sugar beet or potatoes. Some of the compounds according to the invention have high selectivity and are therefore suitable for controlling unwanted vegetation in agricultural crops by the post-emergence method. The data of Tables C and D below illustrate, in an exemplary manner, the […] herbicidal action of the compounds according to the invention, the herbicidal activity being stated in percent.
as §2

Alopecurus myosuroides [9] = assay: Post-emergence herbicidal action, ALOMY; details: 80 g/ha, Table C
Description: as §3, §2

Avena fatua [10] = assay: Post-emergence herbicidal action, AVEFA; details: 80 g/ha, Table C
Description: as §3, §2

Pharbitis purpureum = assay: Post-emergence herbicidal action, PHBPU; details: 80 g/ha, Table D
Description: as §3, §2

Setaria viridis [11] = assay: Post-emergence herbicidal action, SETVI; details: 80 g/ha, Table C
Description: as §3, §2

Stellaria media [12] = assay: Post-emergence herbicidal action, STEME; details: 80 g/ha, Table D
Description: as §3, §2

Viola tricolor [13] = assay: Post-emergence herbicidal action, VIOTR; details: 80 g/ha, Table D
Description: as §3, §2

ECHCG = assay: Post-emergence herbicidal action, ECHCG; details: 80 g/ha, Table C
Description: as §3

Amaranthus retroflexus [14] = assay: Post-emergence herbicidal action, AMARE; details: 80 g/ha, Table D
Description: as §3, §2

SMILES | herbicidal activity ABUTH (Abutilon theophrasti [1]) | herbicidal activity ALOMY (Alopecurus myosuroides [2]) | herbicidal activity AMARE (Amaranthus retroflexus [3]) | herbicidal activity AVEFA (Avena fatua [4]) | herbicidal activity CYPES (Cyperus serotinus) | herbicidal activity MATIN (Matricaria inodora) | herbicidal activity SETVI (Setaria viridis [5]) | Herbicidal activity STEME (Stellaria media [6]) | herbicidal activity VIOTR (Viola tricolor [7]) | herbicidal activity ABUTH (Abutilon theophrasti [8]) | herbicidal activity ALOMY (Alopecurus myosuroides [9]) | herbicidal activity AVEFA (Avena fatua [10]) | Herbicidal activity PHBPU (Pharbitis purpureum) | herbicidal activity SETVI (Setaria viridis [11]) | Herbicidal activity STEME (Stellaria media [12]) | herbicidal activity VIOTR (Viola tricolor [13]) | Herbicidal activity ECHCG (ECHCG) | herbicidal activity AMARE (Amaranthus retroflexus [14])
CCCn1nnnc1NC(=O)c1ccc(C(F)F)c([S+](C)[O-])c1C (stereo not shown) [Example 3-2] | 100% | 90% | 100% | 90% | 80% | 100% | 100% | 90% | 100% | 80% | 90% | 90% | 90% | 100% | 100% | 100% | 90% | –
Cc1c(C(=O)Nc2ncnn2C)ccc(C(F)F)c1[S+](C)[O-] (stereo not shown) [Example 4-2] | 100% | – | 100% | 80% | 80% | 100% | 100% | 100% | 90% | 90% | – | 80% | 90% | 80% | 90% | 100% | 100% | 100%
CCSc1c(C(F)F)ccc(C(=O)Nc2nnnn2CC)c1C [Example 2-4] | 100% | 100% | 100% | 100% | 100% | 100% | 100% | 90% | 100% | – | 90% | 100% | 100% | 90% | 100% | 100% | 90% | –
CCn1nnnc1NC(=O)c1ccc(C(F)F)c(S(C)(=O)=O)c1Cl [Example 2-51] | 100% | 90% | 100% | 100% | 90% | 100% | 100% | 90% | 100% | 100% | – | 90% | 90% | 90% | 100% | 100% | 90% | 100%
CCS(=O)(=O)c1c(C(F)F)ccc(C(=O)Nc2nnnn2C)c1F [Example 1-42] | 100% | 100% | 100% | 100% | 100% | 100% | 100% | 100% | 100% | 90% | – | – | 100% | 90% | 100% | 100% | 80% | 100%
